Common to all, as to type: in vivo
Data set [1] is described as follows: Organ distribution of ASK1 inhibitor in rats after intravenous administration. To be noted: male, Sprague-Dawley, rat, single IV 10 mg/kg. The protocol:
The objective of this study was to investigate organ (liver, heart, kidney, pancreas, spleen and skin) distribution of ASK1 inhibitor in male Sprague Dawley rats following a single intravenous (IV) administration at a dose of 10 mg/kg. Three rats are administered intravenously with a solution formulation of ASK1 inhibitor 2-(6-(4-cyclopropyl-4H-1,2,4-triazol-3-yl)pyridin-2-yl)-5-(morpholine-4-carbonyl)isoindolin-1-one in 5% NMP, 15% Solutol HS-15, 20% PEG-400 and 60% HpBetaCD at 10 mg/kg dose. 2-(6-(4-Cyclopropyl-4H-1,2,4-triazol-3-yl)pyridin-2-yl)-5-(morpholine-4-carbonyl)isoindolin-1-one was prepared as described in US2018/0291002 which is herein incorporated by reference in its entirety.
(§1) Blood samples (approximately 120 μL) were collected under light isoflurane anesthesia from retro orbital plexus from a set of three rats at 1 h post IV injection. Immediately after blood collection, plasma was harvested by centrifugation at 4000 rpm, 10 min at […] and samples were stored at −70±10° C. until bioanalysis. Animals were sacrificed immediately followed by abdominal vena-cava cut open and whole body was perfused from heart using 10 mL of normal saline. After isolation, tissue samples were rinsed three times in ice cold normal saline (for 5-10 seconds/rinsed using ˜5-10 mL normal saline in disposable petri dish for each rinse, dried on blotting paper and weighed. Tissue (liver, heart, kidney, pancreas, spleen and skin) samples were homogenized using ice-cold phosphate buffer saline (pH−7.4). Total homogenate volume was five times the tissue weight. All homogenates were stored below −70±10° C. until bioanalysis.
(§2) Plasma, liver, heart, kidney, pancreas, spleen, and skin samples were quantified by fit-for-purpose LC-MS/MS method.

Data set [2] can be described thus: Organ distribution of ASK1 inhibitor in rats after oral administration. To be noted: male, Sprague-Dawley, rat, single oral 300 mg/kg. The protocol:
The objective of this study was to investigate organ (liver, heart, kidney) distribution of ASK1 inhibitor in male Sprague Dawley rats following a single oral (PO) administration at a dose of 300 mg/kg. Three rats are administered orally with suspension formulation of ASK1 inhibitor 2-(6-(4-cyclopropyl-4H-1,2,4-triazol-3-yl)pyridin-2-yl)-5-(morpholine-4-carbonyl)isoindolin-1-one in a formulation of 0.1% Tween 80 and 99.9% HPMC (0.5% w/v in water) at 300 mg/kg dose.
as §1, with “PO administration.” for “IV injection.”, “kidney)” for “kidney, pancreas, spleen and skin)”
as §2

The subject of data set [3] is C57Bl/6 male mice. As to the kind of experiment: Efficacy of intravenous ASK1 inhibitor in liver injury due to acute alcoholic hepatitis (pyrazole/LPS model), plasma ALT. Conditions: IV 0.3 and 3 mg/kg twice (3 hours apart), plasma 24 h after LPS. The protocol: The goal of the study is to evaluate whether IV administered ASK1 inhibitor can reduce liver injury due to acute alcoholic hepatitis (AH).
Seven-day acclimated C57Bl/6 male mice were treated with pyrazole for 2-days to induce CYP2E, prior to ASK1 inhibitor and lipopolysaccharide (LPS) administration. On day 3, ASK1 inhibitor 2-(6-(4-cyclopropyl-4H-1,2,4-triazol-3-yl)pyridin-2-yl)-5-(morpholine-4-carbonyl)isoindolin-1-one was administered by IV injection via tail vein at 0.3 and 3 mg/kg or vehicle twice (3 hours apart). LPS was administered intraperitoneally 30 min after the first dose of 2-(6-(4-cyclopropyl-4H-1,2,4-triazol-3-yl)pyridin-2-yl)-5-(morpholine-4-carbonyl)isoindolin-1-one. LPS administration emulates the inflammation by gut bacteria penetrating the intestinal wall following binge drinking. 24 h after LPS administration, plasma was collected for ALT analysis to estimate reduction of liver injury following intravenous treatment with ASK1 inhibitor.

The mark [4] stands for this setting: heart / plasma, read-out: Tissue-to-plasma ratio, Heart.
Setting [5] is: kidney / plasma, read-out: Tissue-to-plasma ratio, Kidney.
The mark [6] stands for this setting: liver / plasma, read-out: Tissue-to-plasma ratio, Liver.

As for `O=C(c1ccc2c(c1)CN(c1cccc(-c3nncn3C3CC3)n1)C2=O)N1CCOCC1` [2-(6-(4-cyclopropyl-4H-1,2,4-triazol-3-yl)pyridin-2-yl)-5-(morpholine-4-carbonyl)isoindolin-1-one], the Kp at 1 h was 1.11 in data set [1] (setting [4]); 5.99 in data set [1] (setting [5]); 9.37 in data set [1] (setting [6]); 0.99 in data set [1] (pancreas / plasma, read-out: Tissue-to-plasma ratio, Pancreas); 0.46 in data set [1] (skin / plasma, read-out: Tissue-to-plasma ratio, Skin); 0.89 in data set [1] (spleen / plasma, read-out: Tissue-to-plasma ratio, Spleen). In addition, the Kp at 1 h in data set [2] (setting [4]) came out at 1.13; in data set [2] (setting [5]), 7.47; in data set [2] (setting [6]), 13.8. In data set [3], the “lowered plasma ALT levels” value is recorded as 74-85%.

The values above are taken from US20260021084A1, “METHOD OF TREATING ORGAN DISEASES OR DISORDERS WITH ASK1 INHIBITORS” (Seal Rock Therapeutics, Inc., priority 2022, published 2026).
